The results in this text go back to ChEMBL document CHEMBL2380296, “Structure-based design and optimization of 2-aminothiazole-4-carboxamide as a new class of CHK1 inhibitors” (Bioorg Med Chem Lett, 2013).

SMILES strings stand for the structures.

For one assay, the target named is T1, Serine/threonine-protein kinase Chk1 (Homo sapiens, UniProt O14757).
T1 sequence (O14757 whole entry): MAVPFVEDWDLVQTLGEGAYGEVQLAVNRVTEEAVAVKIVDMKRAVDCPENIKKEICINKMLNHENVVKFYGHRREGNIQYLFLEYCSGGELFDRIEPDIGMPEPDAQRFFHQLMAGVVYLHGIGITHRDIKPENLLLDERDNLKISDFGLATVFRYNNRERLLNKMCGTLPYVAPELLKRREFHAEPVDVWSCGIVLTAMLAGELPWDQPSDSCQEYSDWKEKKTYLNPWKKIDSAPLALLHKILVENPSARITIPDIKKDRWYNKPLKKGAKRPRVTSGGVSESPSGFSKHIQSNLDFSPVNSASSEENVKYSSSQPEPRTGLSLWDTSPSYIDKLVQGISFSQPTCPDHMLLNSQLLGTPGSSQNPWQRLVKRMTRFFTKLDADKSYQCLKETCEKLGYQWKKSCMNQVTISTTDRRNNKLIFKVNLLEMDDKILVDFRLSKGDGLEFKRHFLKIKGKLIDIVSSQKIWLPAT
Kind of assay: Inhibition of CHK1 in human U2OS cells assessed as phosphorylation of H2AX after 2 hrs by FITC/propidium iodide staining-based immunofluorescence assay in presence of hydroxyurea. It is filed as cell-based.
On to `COc1ccc2c(c1)C(=O)N(c1nc(C(=O)Nc3cc(F)ccc3N3CCNCC3)cs1)C2`, for which the EC50 came to 6000 nM. For the molecule `O=C(Nc1cnccc1N1CCNCC1)c1csc(-c2ccc3sccc3c2)n1`, the EC50 was 1250 nM. For the molecule `COc1ccc(-c2cc(Nc3nc(C(=O)Nc4ccccc4N4CCNCC4)cs3)[nH]n2)cc1`, the EC50 amounted to 3750 nM.

For `O=C(Nc1cnccc1N1CCNCC1)c1csc(N2Cc3ccccc3C2)n1`, the concentration for a half-maximal effect (EC50) was determined as 900 nM.

`O=C(Nc1cnccc1N1CCNCC1)c1csc(N2Cc3ccccc3C2=O)n1`: the EC50 came to 100 nM.

As for `O=C(Nc1ccccc1N1CCNCC1)c1csc(Nc2cc(-c3ccccc3)n[nH]2)n1`, the EC50 worked out at 7500 nM. Consider `COc1ccc2c(c1)C(=O)N(c1nc(C(=O)Nc3cnc(C)cc3N3CCNCC3)cs1)C2`, for which the EC50 came out at 1000 nM. Turning to `O=C(Nc1cnccc1N1CCNCC1)c1csc(-c2cc3ccccc3s2)n1`, the EC50 is 1000 nM.

Regarding `O=C(Nc1cnccc1N1CCNCC1)c1csc(-n2ncc3ccccc32)n1`, the concentration giving a half-maximal response (EC50) was determined as 75 nM.

With `O=C(Nc1cnccc1N1CCNCC1)c1csc(Nc2n[nH]c3ccccc23)n1`, the EC50 amounted to 40 nM. Take `O=C(Nc1ccccc1N1CCNCC1)c1csc(Nc2n[nH]c3ccccc23)n1`: the EC50 amounted to 350 nM. In the case of `O=C(Nc1ccccc1N1CCNCC1)c1csc(-n2ncc3ccccc32)n1`, the EC50 was 750 nM. For `O=C(Nc1ccccc1N1CCNCC1)c1csc(N2Cc3ccccc3C2)n1`, the EC50 turned out to be 1400 nM. On the same count and under the same terms, the value for `COc1ccc2c(c1)C(=O)N(c1nc(C(=O)Nc3ccccc3N3CCNCC3)cs1)C2` was 250 nM. With `O=C(Nc1cnccc1N1CCNCC1)c1csc(-c2ccc3[nH]ccc3c2)n1`, the EC50 is 1000 nM.

The target of a further assay is T1, Serine/threonine-protein kinase Chk1.
In the case of `COc1ccc2c(c1)C(=O)N(c1nc(C(=O)Nc3cc(F)ccc3N3CCNCC3)cs1)C2`, the IC50 was 4 nM.

`O=C(Nc1ccccc1N1CCNCC1)c1csc(N2Cc3ccncc3C2)n1` yielded an IC50 of 190 nM. The same measure, in the same setting: the value for `O=C(Nc1ccncc1N1CCNCC1)c1csc(-c2ccc3c(c2)CCO3)n1` was 230 nM; that for `O=C(Nc1ccccc1N1CCNCC1)c1csc(N2CCc3sccc3C2)n1` was 39 nM; that for `O=C(Nc1ccccc1N1CCNCC1)c1csc(N2CCCc3ccccc32)n1` was 38 nM. `Cc1ncc2c(n1)CN(c1nc(C(=O)Nc3ccccc3N3CCNCC3)cs1)C2` registered a half-maximal inhibitory concentration (IC50) of 5700 nM. `COc1ccc(-c2cc(N)n(-c3nc(C(=O)Nc4ccccc4N4CCNCC4)cs3)n2)cc1` yielded an IC50 of 980 nM. In turn, `O=C(Nc1cnccc1N1CCNCC1)c1csc(-c2ccc3sccc3c2)n1` had an IC50 of 7 nM. On the same count and under the same terms, the value for `O=C(Nc1cnccc1N1CCNCC1)c1csc(-c2ccc(Oc3ccccc3)cc2)n1` was 430 nM; that for `COc1ccc(-c2cc(Nc3nc(C(=O)Nc4ccccc4N4CCNCC4)cs3)[nH]n2)cc1` was 3 nM. Molecule `O=C(Nc1cnccc1N1CCNCC1)c1csc(N2Cc3ccccc3C2)n1` had an IC50 of 8 nM. This IC50 lies about 2.7-fold higher than the previous one. For the molecule `O=C(Nc1ccccc1N1CCNCC1)c1csc(Nc2ccccc2)n1`, the IC50 turned out to be 92 nM. The molecule `O=C(Nc1cnccc1N1CCNCC1)c1csc(N2Cc3ccccc3C2=O)n1` returned an IC50 of 2 nM.

On to `O=C(Nc1ccccc1N1CCNCC1)c1csc(N2Cc3cn[nH]c3C2)n1`, for which inhibition was half-maximal at 62 nM (IC50).

For `O=C(Nc1ccccc1N1CCNCC1)c1csc(Nc2cc(-c3ccccc3)n[nH]2)n1`, it took 14 nM to reach half-maximal inhibition (IC50). In turn, `O=C(Nc1ccccc1N1CCNCC1)c1csc(-n2cccn2)n1` displayed an IC50 of 120 nM. In the case of `COc1ccc2c(c1)C(=O)N(c1nc(C(=O)Nc3cnc(C)cc3N3CCNCC3)cs1)C2`, half-maximal inhibition (IC50) required 10 nM.

Take `O=C(Nc1cnccc1N1CCNCC1)c1csc(-c2cc3ccccc3s2)n1`: the midpoint of inhibition, the IC50, lay at 3 nM. On to `O=C(Nc1ccccc1N1CCNCC1)c1csc(N2CCc3c(F)ccc(F)c3C2)n1`, for which half-maximal inhibition (IC50) was put at 1300 nM. Against the preceding molecule, the IC50 is about 430-fold higher. Consider `COc1ccc2c(c1)C(=O)N(c1nc(C(=O)Nc3cnc4ccccc4c3N3CCNCC3)cs1)C2`, for which the IC50 turned out to be 5200 nM. With `COc1ccc2c(c1)C(=O)N(c1nc(C(=O)Nc3cncnc3N3CCNCC3)cs1)C2`, the midpoint of inhibition, the IC50, lay at 46 nM. With `O=C(Nc1ccccc1N1CCNCC1)c1csc(-n2ccnc2)n1`, half-maximal inhibition (IC50) required 10000 nM. Consider `COc1ccc2c(c1)C(=O)N(c1nc(C(=O)Nc3ccnnc3N3CCNCC3)cs1)C2`, for which the IC50 amounted to 281 nM. As for `Cc1nc2c(s1)CN(c1nc(C(=O)Nc3ccccc3N3CCNCC3)cs1)C2`, the half-inhibitory concentration (IC50) turned out to be 280 nM.

`O=C(Nc1ccccc1N1CCNCC1)c1csc(N2CCc3[nH]cnc3C2)n1` had an IC50 of 4000 nM. For `O=C(Nc1cnccc1N1CCNCC1)c1csc(-n2ncc3ccccc32)n1`, the IC50 stood at 3 nM. In the case of `O=C(Nc1ccccc1N1CCNCC1)c1csc(NCc2ccccc2)n1`, the midpoint of inhibition, the IC50, lay at 11000 nM. This IC50 is about 3700-fold higher than that of the molecule before. `CN(Cc1ccccc1)c1nc(C(=O)Nc2ccccc2N2CCNCC2)cs1`: the IC50 was > 50000 nM. Same read-out and setting: the result for `O=C(Nc1cnccc1N1CCNCC1)c1csc(Nc2n[nH]c3ccccc23)n1` reads 3 nM. Consider `O=C(Nc1ccccc1N1CCNCC1)c1csc(NC2Cc3ccccc3C2)n1`, for which the IC50 stood at 6900 nM. Regarding `O=C(Nc1ccccc1N1CCNCC1)c1csc(Nc2n[nH]c3ccccc23)n1`, the IC50 turned out to be 2 nM.

In the case of `COc1cc2c(cc1OC)CN(c1nc(C(=O)Nc3ccccc3N3CCNCC3)cs1)CC2`, the IC50 was 29 nM. On the same count and under the same terms, the value for `O=C(Nc1ccccc1N1CCNCC1)c1csc(N2CCc3ccccc3C2)n1` was 38 nM. On the same count and under the same terms, the result for `O=C(Nc1ccccc1N1CCNCC1)c1csc(-n2ncc3ccccc32)n1` reads 2 nM. `O=C(Nc1cnccc1N1CCNCC1)c1csc(-c2ccc3c(c2)CCO3)n1` returned an IC50 of 55 nM. Against the preceding molecule, the IC50 is about 28-fold higher. Regarding `Cn1nc(-c2ccccc2)cc1Nc1nc(C(=O)Nc2ccccc2N2CCNCC2)cs1`, the 50% inhibitory concentration (IC50) turned out to be 4500 nM. As for `O=C(Nc1ccccc1N1CCNCC1)c1csc(N2Cc3ccccc3C2)n1`, inhibition was half-maximal at 8 nM (IC50).

With `O=C(Nc1cnccc1N1CCNCC1)c1csc(-c2ccc3occc3c2)n1`, the IC50 worked out at 28 nM. As to `O=C(Nc1ccccc1N1CCNCC1)c1csc(-n2nnc3ccccc32)n1`, half-maximal inhibition (IC50) required 110 nM. Consider `O=C(Nc1cccnc1N1CCNCC1)c1csc(-c2ccc3c(c2)CCO3)n1`, for which half-maximal inhibition (IC50) was put at 870 nM. `COc1ccc2c(c1)C(=O)N(c1nc(C(=O)Nc3ccccc3N3CCNCC3)cs1)C2` displayed a concentration for half-maximal inhibition (IC50) of 5 nM. Consider `O=C(Nc1ncccc1N1CCNCC1)c1csc(-c2ccc3c(c2)CCO3)n1`, for which the IC50 stood at 4700 nM.

`O=C(Nc1cnccc1N1CCNCC1)c1csc(-c2ccc3[nH]ccc3c2)n1` showed an IC50 of 10 nM. The same measure, in the same setting: the result for `CN(c1ccccc1)c1nc(C(=O)Nc2ccccc2N2CCNCC2)cs1` reads 240 nM.

As usually defined, the EC50 is the concentration needed to bring the measured effect to its halfway point. A word on the IC50: it is the point on the concentration scale where inhibition reaches its midpoint. Low values mean greater potency, high ones weaker potency.
